{
  "source": "patent US20190151294A1",
  "about": "“TREATMENT OF ALCOHOLISM AND DEPRESSION AND/OR DYSPHORIC MOOD USING IBUDILAST” (MEDICINOVA, INC., priority 2016, published 2019)",
  "test_system": "non-treatment-seeking individuals with AUD",
  "experiment": "Phase 1b study: stress reactivity assessment (SR)",
  "format": "in vivo, human",
  "conditions": "50 mg BID",
  "excerpt": "Personal information collected at the time of admission (day 1) to the CRTC was used to generate personalized scripts of neutral and stressful conditions. Participants were asked to identify a recent stressful experience and to rate them on a 0 to 10 Likert scale, where a rating of 10 is considered to be the most stressful experience. Only stressful events rated≥8 were used in script development. Data on physical symptoms associated with the stressful and neutral events were also collected for script development.\nDuring the study, each exposure consisted of 5-minute tape-recorded scripts recounting the recent stressful (or neutral) events in the participants' lives, including cognitions and physical feelings. […]\nThe following measures of mood, urge to drink, and physiological reactivity were administered at baseline and post-imagery for both the stress and neutral conditions: (1) The Profile of Mood States, Short Version (POMS) collected data on (a) positive and negative mood; (2) The Alcohol Urge Questionnaire (AUQ) measured subjective levels of alcohol cravings at the present moment (i.e., following stress imagery); (3) Cortisol levels were assessed by collecting saliva samples and heart rate and blood pressure were measured using a Dynamap Adult Vital Signs Monitor. […]",
  "data": [
    {"smiles": "CC(C)C(=O)c1c(C(C)C)nn2ccccc12", "note": "[ibudilast, Ibudilast]", "values": [
      {"measurement": "stress-induced AUQ craving", "setting": "day 5 stress-exposure", "result": "did not affect"},
      {"measurement": "positive mood during stress procedures", "setting": "p<0.05, FIG. 6", "result": "increased positive mood"}
    ]}
  ]
}
